# According to ChEMBL document CHEMBL1144396 (J Med Chem, 2005):
# Molecular target: T1, Equilibrative nucleoside transporter 1 (Homo sapiens, UniProt Q99808)
# T1 sequence (Q99808 whole entry): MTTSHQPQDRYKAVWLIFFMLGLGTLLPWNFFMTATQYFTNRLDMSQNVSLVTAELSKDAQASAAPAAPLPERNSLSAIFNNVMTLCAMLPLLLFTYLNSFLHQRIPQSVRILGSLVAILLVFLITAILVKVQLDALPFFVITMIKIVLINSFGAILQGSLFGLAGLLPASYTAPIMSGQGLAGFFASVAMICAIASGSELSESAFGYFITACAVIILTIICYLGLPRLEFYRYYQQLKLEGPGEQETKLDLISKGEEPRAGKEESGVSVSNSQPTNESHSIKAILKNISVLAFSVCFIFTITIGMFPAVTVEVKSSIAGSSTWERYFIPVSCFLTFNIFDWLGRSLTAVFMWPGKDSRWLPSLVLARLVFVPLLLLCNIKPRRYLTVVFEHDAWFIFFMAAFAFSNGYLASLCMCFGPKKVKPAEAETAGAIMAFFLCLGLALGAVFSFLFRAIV
# Test: Inhibition of [3H]NBTI binding to equilibrative nucleoside transport protein 1 (ENT1) in human erythrocyte membranes
# Assay type: cell membranes
Structure (SMILES),Ki,Inhibition
OC[C@H]1OC(n2c(N3CCOCC3)nc3c(SCc4ccccc4)ncnc32)[C@H](O)[C@@H]1O (stereo partly drawn),–,33%
CCCNc1nc2c(NC3CCCC3)ncnc2n1[C@@H]1O[C@H](CO)[C@@H](O)[C@H]1O,97 nM,–
CCCNc1nc2c(SCc3ccccc3)ncnc2n1C1O[C@H](CO)[C@@H](O)[C@H]1O (stereo partly drawn),5.3 nM,–
OC[C@H]1OC(n2c(NC3CCCCC3)nc3c(SCc4ccccc4)ncnc32)[C@H](O)[C@@H]1O (stereo partly drawn),0.94 nM,–
O=[N+]([O-])c1ccc(CSc2ncnc3c2nc(N2CCCC2)n3Cc2ccccc2)cc1,1520 nM,–
O=[N+]([O-])c1ccc(CSc2ncnc3c2nc(N2CCOCC2)n3Cc2ccccc2)cc1,51 nM,–
CNc1nc2c(SCc3ccccc3)ncnc2n1C1O[C@H](CO)[C@@H](O)[C@H]1O (stereo partly drawn),28 nM,–
OC[C@H]1O[C@@H](n2cnc3c(NC4CCCC4)ncnc32)[C@H](O)[C@@H]1O [N6-CYCLOPENTYLADENOSINE],1100 nM,–
OC[C@H]1OC(n2c(NC3CCCC3)nc3c(SCc4ccccc4)ncnc32)[C@H](O)[C@@H]1O (stereo partly drawn),0.64 nM,–
OC[C@H]1OC(n2c(N3CCCCC3)nc3c(SCc4ccccc4)ncnc32)[C@H](O)[C@@H]1O (stereo partly drawn),744 nM,–
OC[C@H]1O[C@@H](n2cnc3c(SCc4ccccc4)ncnc32)[C@H](O)[C@@H]1O [6-BENZYLTHIOINOSINE],53 nM,–

# Now from value to compound:
Ki,Inhibition,Structure (SMILES)
3.6 nM,–,CCC(C)CNc1nc2c(SCc3ccccc3)ncnc2n1C1O[C@H](CO)[C@@H](O)[C@H]1O (stereo partly drawn)
3 nM,–,OC[C@H]1OC(n2c(NC3CC3)nc3c(SCc4ccccc4)ncnc32)[C@H](O)[C@@H]1O (stereo partly drawn)
9.5 nM,–,CCNc1nc2c(SCc3ccccc3)ncnc2n1C1O[C@H](CO)[C@@H](O)[C@H]1O (stereo partly drawn)
5.4 nM,–,CCCCNc1nc2c(SCc3ccccc3)ncnc2n1C1O[C@H](CO)[C@@H](O)[C@H]1O (stereo partly drawn)
2.3 nM,–,CCCCCNc1nc2c(SCc3ccccc3)ncnc2n1C1O[C@H](CO)[C@@H](O)[C@H]1O (stereo partly drawn)
410 nM,–,OC[C@H]1OC(n2c(N3CCCC3)nc3c(SCc4ccccc4)ncnc32)[C@H](O)[C@@H]1O (stereo partly drawn)
3.7 nM,–,CCCCCCNc1nc2c(SCc3ccccc3)ncnc2n1C1O[C@H](CO)[C@@H](O)[C@H]1O (stereo partly drawn)
